Consider one substance from patent US20240293563A1, “GLP-1 RECEPTOR LIGAND MOIETY CONJUGATED OLIGONUCLEOTIDES AND USES THEREOF” (priority 2017, published 2024).

As a reminder, the IC50 is the concentration at which inhibition is half-maximal.

Assay [1] has as its system MALAT1. As to the kind of experiment: MALAT1 expression in liver by in situ hybridization. Format: in vivo, mouse. How it is done:
Tissues were prepared as described herein, Example 11. The in situ mRNA amplification and labelling process was performed on the Ventana Discovery ULTRA, an Automated ISH platform(Ventana Medical System, Inc) using the RNAscope® VS Assay based on Advanced Cell Diagnostics (ACD). Customized probes were obtained from ACD for the detection of MALAT1 mRNA, and various parameters were tested to optimize the novel RNAscope method for ISH. The signal was amplified using multiple steps, followed by labeled probes and detected using the RNAscope® 2.5 VS Reagent Kit-RED. […] All animals were sacrificed approximately 72 hrs after last, and liver harvested for ex vivo analysis of MALAT1 expression by in situ hybridization. Tissues were prepared, and in situ hybridization performed, as described herein, Example 12.

Assay [2] deals with MALAT1 mRNA. Briefly: Dose dependent antisense inhibition of MALAT1 in hGLP1R-HEK cells. To be noted: approximately 24 hrs, qRT-PCR normalized to RPLP0. Format: cell-based, human. The protocol:
The hGLP1R-HEK cell line was generated by expressing hGLP1R in Flp-IN™ 293 cells. Cultured hGLP1R-HEK cells were seeded at a density 30,000 cells per well in 96 well plates and saline, 100 nM or 10 μM of unconjugated parent antisense oligonucleotide ISIS 556089 targeted to MALAT1 described above or ISIS 776102 (nucleobase sequence: […]) (SEQ ID NO: 64) targeted to FOXO1, or corresponding GLP-1 peptide conjugated antisense oligonucleotides (ISIS 816385 targeted to MALAT1 described above or ION 913193 targeted to FOXO1 described above) for approximately 24 hrs. After the treatment period, cells were harvested, the mRNA isolated and adjusted to total RNA content as measured by nanadrop UV-Vis spectrophotometer. MALAT1 or FOXO1 mRNA levels were measured by quantitative real-time PCR and normalized to the mRNA levels of the house keeping gene (RPLP0) in the same samples. Human MALAT1 mRNA levels were measured using gene expression assays HS00273907 and FOXO1 mRNA levels were measured using assay Hs01054576 (Applied Biosystems). The mRNA level of the house keeping gene RPLP0 was measured using a primer probe set with forward sequence […] CAT […] (SEQ ID NO: 66), reverse sequence […] (SEQ ID NO: 67). […]
After the treatment period cells were harvested, mRNA isolated and MALAT1 mRNA levels measured by quantitative real-time PCR using the primer probe set as described herein (Example 7). […]

Assay [3] concerns MALAT1. As to the kind of experiment: MALAT1 expression in pancreas by in situ hybridization (RNAscope). Format: in vivo, mouse. Conditions: 2 μmol/kg, 72 hrs after last dose. The source says:
Female C57BL/6Crl mice were assigned to five treatment groups. […] All animals were sacrificed approximately 72 hrs after last dose, and pancreas harvested for ex vivo analysis of uptake of antisense oligonucleotides by immunohistochemistry.
Female C57BL/6Crl mice were assigned to five treatment groups as described herein (Example 11) All animals were sacrificed approximately 72 hrs after last dose, and pancreas harvested for ex vivo analysis of MALAT1 expression by in situ hybridization.
The in situ mRNA amplification and labelling process was performed on the Ventana Discovery ULTRA, an Automated ISH platform(Ventana Medical System, Inc) using the RNAscope® VS Assay based on Advanced Cell Diagnostics (ACD). Customized probes were obtained from ACD for the detection of MALAT1 mRNA, and various parameters were tested to optimize the novel RNAscope method for ISH. The signal was amplified using multiple steps, followed by labeled probes and detected using the RNAscope® 2.5 VS Reagent Kit-RED. Stained slides were analyzed under a standard bright-field microscope.

Assay [4] has as its system MALAT1 mRNA. Briefly: Dose dependent antisense inhibition of MALAT1 in WT HEK293 cells. Type of assay: cell-based, human. To be noted: approximately 24 hrs, qRT-PCR normalized to RPLP0. A general note: Real-time PCR tracks product formation cycle by cycle.
Assay [5] has as its system MALAT1. Briefly: MALAT1 in situ hybridization in beta islet cells after i.v. GLP-1 ASO conjugates with various linkers. Type of assay: in vivo, mouse. To be noted: male C57BL/6 mice; intravenous 0.6 μmol/kg/week once a week for three weeks; 72 hours after final injection.
A further assay deals with MALAT-1 mRNA. Briefly: Dose-response inhibition of MALAT-1 mRNA in pancreatic islets 72 hrs after single s.c. dose, various linkers. To be noted: 0.01 μmol/kg single subcutaneous injection, relative to PBS. Format: in vivo, mouse.
For a further assay, the system named is MALAT-1. Briefly: Dose-dependent reduction of MALAT-1 expression in LVX-GLP1R cells. Format: cell-based, human. How it is done: HEK cells stably expressing FLAG-tagged GLP1R were generated by infecting HEK 293 cells with FLAG-tagged GLP1R containing lentivirus produced by transfection of 293T cells with pLVX-IRES-Puro (Clontech Laboratories Inc., Mountainview, CA) harboring the FLAG-GLP1R insert. Infected cells were selected with puromycin (2 μg/ml) and then analyzed for receptor expression by western blot and immunofluorescence. Cultured GLP1R cells were plated at a density of 10,000 cells per well and treated with 0.3, 1, 3, 9, 27, 82, 247, 741, 2,222, 6,667, and 20,000 nM modified oligonucleotide for approximately 24 hours. After the treatment period, total RNA was prepared using an RNeasy mini kit (Qiagen, Valencia, CA, USA) and qRT-PCR was performed using the primer probe set RTS2739 (forward sequence: […] (SEQ ID NO: 74), reverse sequence: […] (SEQ ID NO: 75), probe sequence: […] (SEQ ID NO: 76). Briefly, ˜50 ng total RNA in 5 d water was mixed with 0.3 d primer probe sets containing forward and reverse primers (10 μM of each) and fluorescently labeled probe (3 μM), 0.3 W RT enzyme mix (Qiagen), 4.4 d RNase-free water, and 10 d of 2×PCR reaction buffer in a 20 d reaction. Reverse transcription was performed at 48° C. for 10 min, 40 cycles of PCR were conducted at 94° C. for 20 s, and 60° C. for 20 s within each cycle, using StepOne Plus RT-PCR system (Applied Biosystems, Phoenix, AZ, USA). The mRNA levels were normalized to the amount of total RNA present in each reaction as determined by Ribogreen assay (Life Technologies) and normalized to the saline control (100% expression).

Square brackets hold non-standard residues; d marks the D form. Side chains are listed from the residue outwards. Ends that are not written are not given here. 5'‑hexylamino oligonucleotide ISIS 786434 = not defined here; Aib = CC(C)(N)C(=O)O; Mpa = O=C(O)CCS

For the substance “ISIS 816385 (H[Aib]EGTFTSDVSSYLEEQAAKEFIAWLVKGGPSSGAPPPSC([Mpa-5'‑hexylamino oligonucleotide ISIS 786434])-NH2; reading uncertain; also: Cys40 joined to the linker by a disulfide)”, the “Liver MALAT1 expression” value with MALAT1 [1] (2 μmol/kg intravenous, compared to vehicle control) is recorded as “reduced compared to vehicle control”. The “Liver MALAT1 expression in hepatocytes” value with MALAT1 [1] (2 μmol/kg subcutaneous, compared with ISIS 556089) is “reduced in hepatocytes of animals treated with ISIS 816385 to a greater extent”. The IC50 in the assay with MALAT1 mRNA [2] stood at 20 nM; in the assay on MALAT1 mRNA [4] it was 2210 nM; with MALAT-1 (approximately 24 hours, read-out: IC50 (MALAT-1 expression in GLP1R HEK cells)) it was 260 nM. In addition, the “MALAT1 expression in the pancreatic islet of Langerhans” value in the assay with MALAT1 [3] (subcutaneous or intravenous (ISIS 556089 subcutaneous only)) was “reduced”. Also, the “MALAT1 expression in the exocrine tissue of pancreas” value with MALAT1 [3] (subcutaneous or intravenous) is “not in the exocrine tissue”. The “MALAT1 expression in beta islet cells compared to saline control (in situ hybridization)” value in the assay with MALAT1 [5] is listed as “reduced”. The “% inhibition of MALAT-1 mRNA in Pancreatic Islets” value in the assay on MALAT-1 mRNA turned out to be 52%. In addition, the “dose-dependent inhibition of MALAT-1” value with MALAT-1 (GLP1R HEK cells, GLP-1 complexed ASOs with or without a TCA linker versus parent) is listed as “increased dose-dependent inhibition”.
